“Also recorded” adds a separate entry of the source.
Key:
18 months-old mice = assay: Y-maze alternation task, old mice; format: in vivo, mouse; conditions: 5 mg/kg i.p. 30 min before testing
Description: C57/B16 male mice males were ordered from Jackson Laboratories at 10 months-old and were kept in normal housing conditions (12 h light ON cycle starting at 7 am/water and food ad libitum) until they reached the age of 18 months. A younger cohort of 8 week old animals was used as controls for the experiment. Before testing animals were handled to reduce the anxiety-like response toward the experimenter. Normal aging induced-working memory deficits were assessed using the Y-maze test as described below.
Mice were first habituated to the Y-maze apparatus and distal cues during 2 consecutive days over a 10 min free exploration session (one session per day). The next day, animals performed a training session consisting in seven successive trials separated by a 30 s inter-trial interval (ITI); during this training session, mice were familiarized with the experimental procedure (opening and closing of the doors and confinement into the goal arms). […] Then, the door was opened and the mouse was allowed to enter freely one of the two goal arms; the chosen arm was closed and the choice was recorded. […]
The same general procedure used in the training session was implemented 24 h later, except that the ITI was lengthened to 90 s. […] The mean alternation rate was calculated and was expressed in percentage (number of alternation done by the animal/total number of alternation possible×100)±SEM. […]

rats [1] = assay: Morris water maze; format: in vivo, rat
Description: The potential of MP-III-022 to affect cognitive performance of rats was assessed in 2 well-validated behavioral models. First, Morris water maze experiments were performed in a 2 m diameter circular pool filled to a height of 30 cm with water at 22±1° C. The escape platform (15 cm×10 cm) was submerged 2 cm below the water surface. All experimental details were as described in Savic et al. (Int. J. Neuropsychopharmacol. 2009, 12, 1179-1193). On each of the five consecutive days rats were given one swimming block, consisting of four trials. For each trial the rat was placed in the water at one of four pseudo-randomly determined starting positions. Once the rat has found and mounted the escape platform it was permitted to remain on the platform for 15 s. […] During the acquisition phase, treatments were applied once daily before the swimming block. On the sixth day, rats were given a treatment-free probe test (60 s) without the platform. The probe test was started from the novel, most distant location. Dependent variables chosen for tracking during the acquisition trials were: escape latency (s), total distance traveled (m), path efficiency (the ratio of the shortest possible path length to actual path length), % of distance swam in the peripheral annulus and mean speed (m/s). The selected parameters in the probe test were the distance swam in the target zone […] and % of the distance swam in the peripheral annulus. We tested the effects of 1, 2.5 and 10 mg/kg MP-III-022 and 2 mg/kg diazepam as control drug. The doses of MP-III-022 were selected so that they elicit a mild, moderate and strong positive modulation of α5GABAARs, respectively, in accordance with the analysis of thorough pharmacokinetic and electrophysiological data presented in Stamenic et al. (Eur. J. Pharmacol. 2016, 791, 433-443). The data from the acquisition days in the Morris water maze were averaged for each rat (total data/total number of trials per day) and analyzed using two-way ANOVA with repeated measures (factors: Treatment and Days) with Days as the repeated measure. In the case of significant interaction, separate one-way ANOVAs were conducted to assess the influence of treatment within individual levels of factor Days. The data from the probe test were assessed using one-way ANOVA.

rats [2] = assay: Social novelty discrimination (SND); format: in vivo, rat; conditions: 10 mg/kg
Description: The SND test compares the social investigation times of an adult rat with a familiar and a novel juvenile rat. Testing consisted of two consecutive juvenile presentations periods to an adult subject: period 1 (P1) and period 2 (P2). At the beginning of P1, one juvenile was placed into the adult home cage and the time spent by the adult investigating the juvenile (anogenital sniffing, licking, close pursuing and pawing) was recorded manually for 5 min. During P2, the same juvenile and a second, novel juvenile were placed in the cage together with the adult, and the times spent by the adult investigating each juvenile were measured independently for 3 min. A different pair of juvenile rats was presented to each adult tested. Manual scoring was conducted in a blinded manner. SND was deliberately impaired in control rats by the parametric manipulation applied, as there was 30 min delay between P1 and P2, and their SND was expected to be low. The influence of MP-III-022 (1, 2.5 or 10 mg/kg) on the thus induced impairment in SND was examined. There were five groups of rats which received one of the following treatments 20 min before P1: solvent, 1.5 mg/kg diazepam and 1, 2.5 and 10 mg/kg MP-III-022. The amount of time investigating familiar (Tf) and novel (Tn) juvenile during P2 was manually scored, and discrimination indexes (Tn−Tf/Tn+Tf) was calculated. Total exploration time during P1 and P2 was also manually recorded.

[3] = Wistar rats, Stamenic et al. 2016, cited from earlier work

With `C#Cc1ccc2c(c1)C(c1ccccc1F)=N[C@H](C)c1c(C(=O)N(C)C)ncn1-2` [GL-II-73, (R)-8-ethynyl-6-(2-fluorophenyl)-N,N,4-trimethyl-4H-benzo[f]imidazo[1,5-a][1,4]diazepine-3-carboxam] the “effect on age-induced working memory impairment (percent alternation rate, Y-maze)” value (18 months-old mice) was “significant reversal of age-induced impairment in working memory; also recorded: significant pro-cognitive effect”.
For `C#Cc1ccc2c(c1)C(c1ccccc1F)=N[C@H](C)c1c(C(=O)NC3CC3)ncn1-2` [GL-II-75, (R)—N-cyclopropyl-8-ethynyl-6-(2-fluorophenyl)-4-methyl-4H-benzo[f]imidazo[1,5-a][1,4]diazepine-3-carboxamide], the “effect on age-induced working memory impairment (percent alternation rate, Y-maze)” value (18 months-old mice) was “significant reversal of age-induced impairment in working memory; also recorded: significant pro-cognitive effect”.
For `C#Cc1ccc2c(c1)C(c1ccccc1F)=N[C@H](C)c1c(C(=O)NC)ncn1-2` [MP-III-022], the “spatial learning and memory (water maze, probe test)” value (rats [1]; 1 mg/kg) was “significant improvement in spatial learning and memory processes”, the “escape latency, distance, distance in peripheral ring, path efficiency (acquisition)” value (rats [1]; 1 mg/kg vs 2 mg/kg diazepam and 10 mg/kg MP-III-022 groups) was “shorter escape latencies, shorter distances, swam less distance in the peripheral ring and had higher path efficiencies” and the “path efficiency on Day II” value (rats [1]; 1 mg/kg, Day II of acquisition) was “higher path efficiencies compared to the control and all other treatment groups”. The “spatial learning during acquisition in the water maze” value (rats [1]; MP-III-022 10 mg/kg once daily before swimming block) was “spatial learning incapacitation indistinguishable from that induced by diazepam 2 mg/kg”, the “spatial learning and memory (water maze, probe test)” value (rats [1]; high doses) was “mimic the cognitive disruption effect of diazepam” and the “discrimination index (social novelty discrimination)” value (rats [2]; 20 min before P1, one-sample t-test vs zero) was “significant differences from zero”. For the same compound, the “time exploring the familiar and the novel juvenile rat during P2” value (rats [2]; 20 min before P1, paired t-test) was “spent significantly more time in exploring the new rat”, the “terminal elimination half-life t1/2, brain” value ([3]; i.p. single dose) was 70 min and the “terminal elimination half-life t1/2, plasma” value ([3]; i.p. single dose) was 35 min. The “systemic and brain exposure” value ([3]; single i.p. dose) was “excellent systemic and brain exposure”.

From patent publication US10906909B2, “Treatment of cognitive and mood symptoms in neurodegenerative and neuropsychiatric disorders with ALPHA5-containing GABAA receptor agonists” (UWM Research Foundation, Inc., priority 2016, dated 2021)
